Measured values from patent EP0037318A1, “Composition, particularly useful in the treatment and prevention of dandruff and containing metallic derivatives of thiobenzoic acid” (PIERRE FABRE S.A., priority 1980, dated 1981).
Like-named read-outs stand apart in the source and are kept apart here.

Legend:
[1] = Delay of auto-oxidation (Waginaire conditions): daily Ip in interesterified oil Labrafil M 1944 CS; conditions: rank order by delay of the auto-oxidation maximum; dose 1/10 000 in Labrafil M 1944 CS, Ip daily for 90 days at 60°C
Text: (Bulletin technique SFPA n° 60) l'évolution des peroxydes se fait en trois phases : • 1) évolution lente de l'Ip (non observée avec l'acide linoléique) • 2) évolution rapide de l'Ip (deux premiers jours) • 3) stabilisation et décroissance de l'Ip.
Cette dernière période apparaît après plusieurs semaines. L'auteur attribue ce phénomène à la formation de groupements carbonyles (aldéhydes et cétones).
On obtient un profil de courbe Ip = f(t) comportant un maximum d'auto-oxydation net.
L'anti-oxydant est d'autant plus efficace que le maximum d'auto-oxydation est-retardé.

[2] = Anti-oxidant power: daily peroxide index (Ip) of linoleic acid containing the suspended agent; conditions: for INDICES DE PEROXYDES: agent at 1 % suspended in linoleic acid, stored at 60°C
Description: La mesure du pouvoir anti-oxydant est effectuée selon la méthode décrite par CARNAT et POURRAT (Ann. Pharm. Fr. 1979, 37, n° 3-4, p. 119-124) en remplaçant l'huile de lin par de l'acide linoléique.
L'oxydation de l'acide linoléique est suivie chaque jour par une mesure de l'indice de peroxydes Ip.
Dans un flacon contenant l'acide linoléique on ajoute 15 ml de CHC13, 20 ml d'acide acétique RP puis 1 ml de solution aqueuse saturée de KI. On agite 1 mn et on laisse reposer le flacon 5 mn à l'obscurité. Après avoir ajouté 100 ml d'eau on dose l'iode libéré par du thiosulfate de sodium 0,01 N. [formula] v = volume de Na2S2O3 versé dans le dosage v = volume de Na2S2O3 versé dans l'essai à blanc Ip est exprimé en mmoles d'oxygène/kg d'acide gras.
Remarque : v doit être voisin de O car un Ip élevé révèle une oxydation du KI par l'oxygène de l'air ou dissous dans les réactifs. Pour éviter cela, les réactifs et le solvant devront être débarrassés de l'oxygène dissous par barbotage de gaz inerte, ceci afin d'obtenir des résultats comparables.
Les différents agents anti-oxydants étudiés sont mis en suspension dans l'acide linoléique et les mélanges ainsi obtenus sont stockés à l'étuve (60°C).
Tous les jours un Ip est effectué sur les mélanges suivants : • 1 - acide thiosalicylique à 1 % • 2 - pyridine thione Zn à 1 % • 3 - thiosalicylate de Zn à 1 %.

Zinc content = format: physicochemical
[3] = Partition coefficients at 20°C; format: physicochemical
Description: 2°) Détermination des coefficients de partage à 20°C

[4] = Maximum solubility in water at 20°C, by spectroscopy
[5] = water

Compound	% Zinc (Zinc content)	Solubilité maximum dans l'eau [5]	Pouvoir anti-oxydant [1]	INDICES DE PEROXYDES ([2]; 0 (start))	INDICES DE PEROXYDES ([2]; 1 jour)	INDICES DE PEROXYDES ([2]; 2 jours)	INDICES DE PEROXYDES ([2]; 3 jours)	INDICES DE PEROXYDES ([2]; 4 jours)	Valeurs de P ([3]; CHCl3 - eau)	Valeurs de P ([3]; Octanol-eau)	Solubilité maximum dans l'eau [4] [mg % ml]	activité anti-oxydante ([2]; in words, compared with pyrithione zinc)
O=C(O)c1ccccc1S [acide thiosalicylique]	–	–	thiosalicylate de Zinc > pyrithione zinc> acide thiosalicylique	0,8 millimoles D2 pour 1000 g d'acide linoléique	117,2 millimoles D2 pour 1000 g d'acide linoléique	191,9 millimoles D2 pour 1000 g d'acide linoléique	202,7 millimoles D2 pour 1000 g d'acide linoléique	204,2 millimoles D2 pour 1000 g d'acide linoléique	–	–	–	–
[O-][n+]1ccccc1[S-].[O-][n+]1ccccc1[S-].[Zn+2] [pyrithione zinc]	20,5%	–	thiosalicylate de Zinc > pyrithione zinc> acide thiosalicylique	0,7 millimoles D2 pour 1000 g d'acide linoléique	98 millimoles D2 pour 1000 g d'acide linoléique	174,1 millimoles D2 pour 1000 g d'acide linoléique	177,6 millimoles D2 pour 1000 g d'acide linoléique	183,7 millimoles D2 pour 1000 g d'acide linoléique	0,30	0,64	2	–
chloro-5-thiosalicylate de zinc [Exemple 9]	25,7%	–	–	–	–	–	–	–	–	–	–	–

Now from value to compound, other results behind:

% Zinc (Zinc content)	Solubilité maximum dans l'eau [5]	Compound	Pouvoir anti-oxydant [1]	INDICES DE PEROXYDES ([2]; 0 (start))	INDICES DE PEROXYDES ([2]; 1 jour)	INDICES DE PEROXYDES ([2]; 2 jours)	INDICES DE PEROXYDES ([2]; 3 jours)	INDICES DE PEROXYDES ([2]; 4 jours)	Valeurs de P ([3]; CHCl3 - eau)	Valeurs de P ([3]; Octanol-eau)	Solubilité maximum dans l'eau [4] [mg % ml]	activité anti-oxydante ([2]; in words, compared with pyrithione zinc)
26,3%	–	méthoxy-4-thiosalicylate de zinc [Exemple 8]	–	–	–	–	–	–	–	–	–	–
28,1%	–	ortho thiocrésotinate de zinc [Exemple 7]	–	–	–	–	–	–	–	–	–	–
30%	1,80 mg % ml	thiosalicylate de zinc [Exemple 1]	thiosalicylate de Zinc > pyrithione zinc> acide thiosalicylique	0,6 millimoles D2 pour 1000 g d'acide linoléique	45,5 millimoles D2 pour 1000 g d'acide linoléique	84,4 millimoles D2 pour 1000 g d'acide linoléique	99,5 millimoles D2 pour 1000 g d'acide linoléique	103,9 millimoles D2 pour 1000 g d'acide linoléique	0,05	0,21	–	excellente
